In PubChem BioAssay (NCI):
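Results reflect a 48-hour exposure of cells in 96-well plates to compound at five concentrations. TGI marks complete inhibition of growth.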

Assays:
Assay in all cases: inhibition of tumour cell growth, NCI panel, 48 h
786-0 renal = tested on: 786-0 renal
A498 renal = tested on: A498 renal
A549 NSCLC = tested on: A549 NSCLC
ACHN renal = tested on: ACHN renal
BT-549 breast = tested on: BT-549 breast
CAKI-1 renal = tested on: CAKI-1 renal
CCRF-CEM leukemia = tested on: CCRF-CEM leukemia
COLO 205 colon = tested on: COLO 205 colon
DU-145 prostate = tested on: DU-145 prostate
EKVX NSCLC = tested on: EKVX NSCLC
HCT-116 colon = tested on: HCT-116 colon
HCT-15 colon = tested on: HCT-15 colon
HL-60(TB) leukemia = tested on: HL-60(TB) leukemia
HOP-62 NSCLC = tested on: HOP-62 NSCLC
HOP-92 NSCLC = tested on: HOP-92 NSCLC
HS 578T breast = tested on: HS 578T breast
HT29 colon = tested on: HT29 colon
IGROV1 ovarian = tested on: IGROV1 ovarian
K-562 leukemia = tested on: K-562 leukemia
KM12 colon = tested on: KM12 colon
LOX IMVI melanoma = tested on: LOX IMVI melanoma
M14 melanoma = tested on: M14 melanoma
MALME-3M melanoma = tested on: MALME-3M melanoma
MCF7 breast = tested on: MCF7 breast
MDA-MB-231 breast = tested on: MDA-MB-231 breast
MDA-MB-435 = tested on: MDA-MB-435
MDA-N = tested on: MDA-N
MOLT-4 leukemia = tested on: MOLT-4 leukemia
NCI-H23 lung = tested on: NCI-H23 lung
NCI-H460 lung = tested on: NCI-H460 lung
NCI-H522 lung = tested on: NCI-H522 lung
NCI/ADR-RES ovarian = tested on: NCI/ADR-RES ovarian
OVCAR-3 ovarian = tested on: OVCAR-3 ovarian
OVCAR-4 ovarian = tested on: OVCAR-4 ovarian
OVCAR-5 ovarian = tested on: OVCAR-5 ovarian
OVCAR-8 ovarian = tested on: OVCAR-8 ovarian
PC-3 prostate = tested on: PC-3 prostate
RPMI-8226 leukemia = tested on: RPMI-8226 leukemia
RXF 393 renal = tested on: RXF 393 renal
SF-268 CNS = tested on: SF-268 CNS
SF-295 CNS = tested on: SF-295 CNS
SF-539 CNS = tested on: SF-539 CNS
SK-MEL-2 melanoma = tested on: SK-MEL-2 melanoma
SK-MEL-28 melanoma = tested on: SK-MEL-28 melanoma
SK-MEL-5 melanoma = tested on: SK-MEL-5 melanoma
SK-OV-3 ovarian = tested on: SK-OV-3 ovarian
SN12C renal = tested on: SN12C renal
SNB-19 CNS = tested on: SNB-19 CNS
SNB-75 CNS = tested on: SNB-75 CNS
SR leukemia = tested on: SR leukemia
SW-620 colon = tested on: SW-620 colon
T-47D breast = tested on: T-47D breast
TK-10 renal = tested on: TK-10 renal
U251 CNS = tested on: U251 CNS
UACC-257 melanoma = tested on: UACC-257 melanoma
UACC-62 melanoma = tested on: UACC-62 melanoma
UO-31 renal = tested on: UO-31 renal

CO/C(=C/C(=O)C(Cl)(Cl)Cl)CC/C(=C\C(=O)C(Cl)(Cl)Cl)OC
TGI (786-0 renal): 60.4 µM | TGI (A498 renal): > 100 µM | TGI (A549 NSCLC): > 100 µM | TGI (ACHN renal): 65.2 µM | TGI (BT-549 breast): 83.2 µM | TGI (CAKI-1 renal): 72.2 µM | TGI (CCRF-CEM leukemia): > 100 µM | TGI (COLO 205 colon): > 100 µM | TGI (DU-145 prostate): 56.7 µM | TGI (EKVX NSCLC): 59.7 µM | TGI (HCT-116 colon): 42.2 µM | TGI (HCT-15 colon): 73.1 µM | TGI (HL-60(TB) leukemia): 80.5 µM | TGI (HOP-62 NSCLC): 49.5 µM | TGI (HOP-92 NSCLC): 40.1 µM | TGI (HS 578T breast): > 100 µM | TGI (HT29 colon): 85.3 µM | TGI (IGROV1 ovarian): 35.8 µM | TGI (K-562 leukemia): > 100 µM | TGI (KM12 colon): 98.9 µM | TGI (LOX IMVI melanoma): 41.5 µM | TGI (M14 melanoma): 88.3 µM | TGI (MALME-3M melanoma): 66.4 µM | TGI (MCF7 breast): 79.8 µM | TGI (MDA-MB-231 breast): > 100 µM | TGI (MDA-MB-435): 53.4 µM | TGI (MDA-N): 66 µM | TGI (MOLT-4 leukemia): > 100 µM | TGI (NCI-H23 lung): 62.7 µM | TGI (NCI-H460 lung): 99.3 µM | TGI (NCI-H522 lung): 57.5 µM | TGI (NCI/ADR-RES ovarian): > 100 µM | TGI (OVCAR-3 ovarian): 67.7 µM | TGI (OVCAR-4 ovarian): 51 µM | TGI (OVCAR-5 ovarian): > 100 µM | TGI (OVCAR-8 ovarian): 56 µM | TGI (PC-3 prostate): 87.7 µM | TGI (RPMI-8226 leukemia): 70.9 µM | TGI (RXF 393 renal): 34.7 µM | TGI (SF-268 CNS): > 100 µM | TGI (SF-295 CNS): > 100 µM | TGI (SF-539 CNS): 63.2 µM | TGI (SK-MEL-2 melanoma): 84.1 µM | TGI (SK-MEL-28 melanoma): 80.5 µM | TGI (SK-MEL-5 melanoma): > 100 µM | TGI (SK-OV-3 ovarian): 87.3 µM | TGI (SN12C renal): 54.5 µM | TGI (SNB-19 CNS): > 100 µM | TGI (SNB-75 CNS): > 100 µM | TGI (SR leukemia): 51.7 µM | TGI (SW-620 colon): > 100 µM | TGI (T-47D breast): 72.5 µM | TGI (TK-10 renal): 73.2 µM | TGI (U251 CNS): 54.7 µM | TGI (UACC-257 melanoma): 43.8 µM | TGI (UACC-62 melanoma): 46.8 µM | TGI (UO-31 renal): 43.4 µM
